# Test results taken from patent US20250262185A1, “METHODS OF ADMINISTERING NEUROPSYCHIATRIC MEDICATIONS BASED ON RENAL IMPAIRMENT” (Sumitomo Pharma America, Inc., priority 2024, published 2025).
# Read-outs that look alike come from different tables or passages of the source.
# Assays:
# [1] = Phase 1 pharmacokinetic study of SEP-363856 in subjects with severe renal impairment and ESRD compared to normal renal function (Example 1)
# Description: Renal function was assessed according to estimated glomerular filtration rate (eGFR) calculated using the Modification of Diet in Renal Disease (MDRD) equation at Screening and Check-in. Estimates calculated using the Cockcroft-Gault equation were also reported. Subjects in Group 1 had severe renal impairment not requiring dialysis and subjects in Group 2 had ESRD requiring dialysis.
# Healthy matched controls with normal renal function were enrolled to match (age, sex, weight, race) across the 2 groups. A healthy control could be matched to more than 1 renally impaired subject. Potential subjects were screened to assess their eligibility to enter the study within 28 days (Day −28 to Day −3) prior to dose administration (Day 1). Each subject completed 1 or 2 treatment periods (1 treatment period for Group 1 and normal healthy subjects with normal renal function and 2 treatment periods for Group 2).
# Subjects in Group 1 and the normal healthy subjects were admitted into the Clinical Research Unit (CRU) on Day −2 and confined to the CRU until discharge on Day 5. […] No food was allowed for 4 hours post-dose. Subjects in Group 1 returned to the CRU for a Follow-up visit approximately 7 days after discharge (i.e., Day 12±2).
# Subjects in Group 2 followed their established dialysis schedule. They were admitted into the CRU on Day −2 and confined to the CRU until discharge on Day 5. […]
# [2] = in vivo
# Description: Any of the embodiments of this disclosure can be practiced to prevent accumulation of SEP-103 in the body exceeding levels studied and deemed safe in preclinical toxicology studies. […].
# [3] = Phase 1 pharmacokinetic study of SEP-856 in subjects with mild and moderate renal impairment compared to normal renal function (Example 3); conditions: for SEP-383103 AUC0-∞ Geo LS Mean / SEP-383103 Cmax Geo LS Mean: ANOVA; for SEP-383103 AUC0-∞ Geo LS Mean / SEP-383103 Cmax Geo LS Mean / MRAUC (metabolite-to-parent ratio based on AUC0-∞) / SEP-383103 plasma Cmax / SEP-383103 plasma Tmax: n=8; for MRAUC (metabolite-to-parent ratio based on AUC0-∞) / SEP-383103 plasma Cmax: GeoMean; for SEP-383103 plasma Cmax / SEP-383103 plasma Tmax: metabolite after single dose SEP-363856 25 mg; for SEP-383103 plasma Tmax: Median
# Description: (§1) Renal function was assessed according to estimated glomerular filtration rate (eGFR) calculated using the Modification of Diet in Renal Disease (MDRD) equation at Screening and Check-in.
# (§2) Healthy controls with normal renal function were enrolled in an effort to approximately match demographics (age, sex, weight, race) across the 2 groups. Potential subjects were screened to assess their eligibility to enter the study within 28 days (Day −28 to Day −3) prior to dose administration (Day 1).
# (§3) Nine healthy controls, 9 subjects with mild renal impairment, and 6 subjects with moderate renal impairment were enrolled.
# (§4) Male and female subjects aged between 18 and 70 years (inclusive) with a body mass index (BMI) between 18.0 and 40.0 kg/m^2 (inclusive) were eligible for study inclusion. Subjects were in good health except for specific inclusion criteria related to the status of renal impairment.
# (§5) Subjects fasted for a minimum of 8 hours before dosing, and an additional 4 hours post-dose; intake of water was restricted except for the period from 1-hour pre-dose through 1-hour post-dose.
# (§6) Final Results: Results were obtained by fitting an ANOVA model to the natural log-transformed PK parameter, with renal function group as fixed effect and subject as random effect. Results were back transformed to obtain the geometric LS mean ratio and 90% CI.
# clinical = conditions: both, human, plasma, oral, 25 mg
# Description: as §1, §2, §3, §4, §5, §6
# hERG = hERG (Homo sapiens, UniProt Q12809); assay: toxicological studies, hERG inhibition; assay type: biochemical; conditions: concentrations up to 30 μM
# [4] = final results, Moderate vs Healthy
# Chain of hERG (Q12809 whole entry): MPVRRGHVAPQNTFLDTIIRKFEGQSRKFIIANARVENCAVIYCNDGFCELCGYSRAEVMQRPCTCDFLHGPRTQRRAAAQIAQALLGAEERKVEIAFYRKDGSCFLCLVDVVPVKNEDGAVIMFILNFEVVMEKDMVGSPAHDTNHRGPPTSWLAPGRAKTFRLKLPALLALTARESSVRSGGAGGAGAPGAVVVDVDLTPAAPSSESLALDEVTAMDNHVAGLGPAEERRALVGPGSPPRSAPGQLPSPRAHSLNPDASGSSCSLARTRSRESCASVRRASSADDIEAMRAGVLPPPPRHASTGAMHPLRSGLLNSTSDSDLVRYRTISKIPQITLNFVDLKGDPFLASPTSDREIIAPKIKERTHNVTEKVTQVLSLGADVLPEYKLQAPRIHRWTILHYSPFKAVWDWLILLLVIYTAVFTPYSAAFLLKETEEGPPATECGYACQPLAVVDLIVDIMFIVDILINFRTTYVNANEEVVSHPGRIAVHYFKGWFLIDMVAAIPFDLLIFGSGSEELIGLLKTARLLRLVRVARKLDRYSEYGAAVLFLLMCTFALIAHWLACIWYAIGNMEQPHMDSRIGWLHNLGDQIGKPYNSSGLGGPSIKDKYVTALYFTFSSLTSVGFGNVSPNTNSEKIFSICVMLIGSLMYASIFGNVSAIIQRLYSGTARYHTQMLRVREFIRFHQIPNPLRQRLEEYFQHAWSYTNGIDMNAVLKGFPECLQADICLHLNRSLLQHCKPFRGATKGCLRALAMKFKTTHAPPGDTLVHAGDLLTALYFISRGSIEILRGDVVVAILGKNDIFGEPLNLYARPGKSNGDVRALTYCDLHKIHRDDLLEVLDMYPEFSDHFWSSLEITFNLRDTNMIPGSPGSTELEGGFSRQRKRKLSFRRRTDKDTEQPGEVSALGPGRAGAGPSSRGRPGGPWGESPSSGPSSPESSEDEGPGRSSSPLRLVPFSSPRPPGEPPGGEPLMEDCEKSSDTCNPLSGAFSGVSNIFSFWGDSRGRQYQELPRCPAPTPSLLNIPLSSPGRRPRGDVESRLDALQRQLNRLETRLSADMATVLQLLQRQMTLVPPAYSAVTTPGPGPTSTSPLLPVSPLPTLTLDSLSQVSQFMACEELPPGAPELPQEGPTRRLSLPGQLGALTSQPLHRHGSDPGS
smiles,measurement,setting,value
O=C(O)[C@@H]1OCCc2ccsc21 [SEP-383103],correlation between exposure (AUC0-∞ and AUC0-last) and renal function,"[1]; human, in vivo",strong correlation
same,metabolite median Tmax versus healthy subjects,[1]; severe renal impairment,delayed substantially
same,blood concentration studied and deemed to be safe,[2]; dog,1100 ng/mL
same,exposure level studied and deemed to be safe,[2]; dog,12200 ng·h/mL
same,blood concentration studied and deemed to be safe,[2]; rat,700 ng/mL
same,exposure level studied and deemed to be safe,[2]; rat,11700 ng·h/mL
same,correlation between exposure (AUC0-∞ and Cmax) and degree of renal impairment,[3]; final results,significant correlation
same,SEP-383103 AUC0-∞ Geo LS Mean,"[3]; final results, Mild",769.5 ng·h/mL
same,SEP-383103 Cmax Geo LS Mean,"[3]; final results, Mild",54.98 ng/mL
same,SEP-383103 AUC0-∞ Geo LS Mean,"[3]; final results, Moderate",1043 ng·h/mL
same,SEP-383103 Cmax Geo LS Mean,"[3]; final results, Moderate",56.30 ng/mL
same,MRAUC (metabolite-to-parent ratio based on AUC0-∞),"[3]; final results, Healthy",0.7348
same,SEP-383103 AUC0-∞ Geo LS Mean Ratio,"[3]; final results, Mild vs Healthy",125.47%
same,SEP-383103 Cmax Geo LS Mean Ratio,"[3]; final results, Mild vs Healthy",128.43%
same,MRAUC (metabolite-to-parent ratio based on AUC0-∞),"[3]; final results, Mild",0.9643
same,SEP-383103 AUC0-∞ Geo LS Mean Ratio,[3]; [4],170.12%
same,SEP-383103 Cmax Geo LS Mean Ratio,[3]; [4],131.50%
same,MRAUC (metabolite-to-parent ratio based on AUC0-∞),"[3]; final results, Moderate",1.276
same,SEP-383103 plasma Cmax,"[3]; final results, Mild",54.98 ng/mL
same,SEP-383103 plasma Tmax,"[3]; final results, Mild",5.000 h
same,SEP-383103 plasma Cmax,"[3]; final results, Moderate",56.30 ng/mL
same,SEP-383103 plasma Tmax,"[3]; final results, Moderate",6.000 h
same,metabolite Tmax change,[3]; mild renal impairment vs healthy,no change
same,AUC(0-inf),clinical,613 ng·h/mL
same,hERG inhibition,hERG,no hERG inhibition
